Assay [1] addresses T1, Fd7Strep (recombinant ferredoxin 7) (Aquifex aeolicus, UniProt Z9T2O6C3G9).
T1 construct: full length with C-terminal Strep-tag II, expressed in E. coli MG1655 ΔiscR; native protein 80 residues, apoprotein 9130 Da; native N-terminus […]
T1 sequence (Z9T2O6C3G9 1-80): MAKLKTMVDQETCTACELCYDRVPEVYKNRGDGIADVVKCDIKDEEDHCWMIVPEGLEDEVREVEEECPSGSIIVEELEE
Briefly: EPR spectroscopy and UV-visible absorption. The following applies: purified protein, dithionite-reduced, […] K. Type of assay: binding.

Assay [2] concerns the target T2, OGOR (2-oxoglutarate:ferredoxin oxidoreductase, Forαβγδε) (Aquifex aeolicus, UniProt O67229+O67230+O67231).
T2 construct: gene forA2; native, enriched from soluble fraction (DEAE, then Bio-Gel HTP); dimer of pentamers (αβγδε)2, about 250-300 kDa; Aq_1163 may co-migrate; with 2-oxoglutarate:ferredoxin oxidoreductase subunit epsilon (ferredoxin-like, Fd2); 2-oxoglutarate:ferredoxin oxidoreductase subunit delta
Briefly: spectrophotometric methyl viologen reduction at […] nm, enriched fraction; in-gel activity. Type of assay: biochemical. To be noted: 10 mM 2-oxoglutarate, 0.1 mM CoA, 0.2 mM TPP, 1 mM MgCl2, 5 mM methyl viologen, pH 8, 80 °C, anaerobic; decarboxylation direction.

Assay [3] has as its target pyruvate:ferredoxin oxidoreductase (PFOR) of Aquifex aeolicus, five-subunit complex PORαβγδε (Aquifex aeolicus (endogenous in A. aeolicus VF5 cells)) (UniProt O67254). Kind of assay: native gel or EMSA; 3-12% Blue Native gel of elution fraction 2 of the Fd7Strep pull-down; in-gel PFOR and OGOR activity at roughly 300 kDa; proteins of the activity bands identified by mass spectrometry; for the self-association: dimer of the αβγδε protomer, from the estimated mass.

The target of assay [4] is T3, PFOR (pyruvate:ferredoxin oxidoreductase, Porαβγδε) (Aquifex aeolicus, UniProt O67254+O67255+O67256).
T3 construct: gene forA1; native, enriched from soluble fraction (DEAE step); dimer of pentamers (αβγδε)2, about 250-300 kDa; with pyruvate:ferredoxin oxidoreductase subunit epsilon (ferredoxin-like, Fd3); pyruvate:ferredoxin oxidoreductase subunit delta
Kind of assay: spectrophotometric methyl viologen reduction at […] nm, enriched fraction; in-gel activity. Type of assay: biochemical. The following applies: 10 mM pyruvate, 0.1 mM CoA, 0.2 mM TPP, 1 mM MgCl2, 5 mM methyl viologen, pH 8, 80 °C, anaerobic; decarboxylation direction.

Assay [5] addresses 2-oxoglutarate:ferredoxin oxidoreductase (OGOR) of Aquifex aeolicus, five-subunit complex FORαβγδε (Aquifex aeolicus (endogenous in A. aeolicus VF5 cells)) (UniProt O67229). Briefly: native gel or EMSA; 3-12% Blue Native gel of elution fraction 2 of the Fd7Strep pull-down; in-gel PFOR and OGOR activity at roughly 300 kDa; proteins of the activity bands identified by mass spectrometry; for the self-association: dimer of the αβγδε protomer, from the estimated mass.

T2 sequence (O67229 1-389): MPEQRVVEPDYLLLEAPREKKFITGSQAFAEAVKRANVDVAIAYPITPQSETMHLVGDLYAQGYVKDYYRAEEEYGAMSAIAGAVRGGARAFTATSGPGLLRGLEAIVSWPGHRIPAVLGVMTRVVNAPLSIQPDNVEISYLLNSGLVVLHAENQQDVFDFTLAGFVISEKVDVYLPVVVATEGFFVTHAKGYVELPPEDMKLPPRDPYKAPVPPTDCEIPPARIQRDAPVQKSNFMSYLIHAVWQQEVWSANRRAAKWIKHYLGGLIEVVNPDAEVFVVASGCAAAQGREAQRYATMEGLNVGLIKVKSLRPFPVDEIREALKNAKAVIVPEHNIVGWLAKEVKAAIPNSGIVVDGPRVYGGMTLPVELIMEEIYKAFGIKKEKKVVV
T2 sequence (O67230 1-289): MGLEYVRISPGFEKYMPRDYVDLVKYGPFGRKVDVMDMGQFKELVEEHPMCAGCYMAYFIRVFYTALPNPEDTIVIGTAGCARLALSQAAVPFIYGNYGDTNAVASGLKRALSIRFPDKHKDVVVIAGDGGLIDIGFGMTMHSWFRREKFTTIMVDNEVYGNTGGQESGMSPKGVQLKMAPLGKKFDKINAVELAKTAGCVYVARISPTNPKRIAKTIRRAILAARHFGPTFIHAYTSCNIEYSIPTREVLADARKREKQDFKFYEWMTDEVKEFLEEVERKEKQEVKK
T2 sequence (O67231 1-230): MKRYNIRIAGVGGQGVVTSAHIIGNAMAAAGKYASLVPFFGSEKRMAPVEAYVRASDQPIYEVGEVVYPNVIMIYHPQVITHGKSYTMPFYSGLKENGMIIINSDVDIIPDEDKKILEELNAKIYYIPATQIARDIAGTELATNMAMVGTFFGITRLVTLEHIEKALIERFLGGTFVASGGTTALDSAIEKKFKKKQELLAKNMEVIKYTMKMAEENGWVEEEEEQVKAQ
T2 sequence (O67228 29-244 partner limits assumed): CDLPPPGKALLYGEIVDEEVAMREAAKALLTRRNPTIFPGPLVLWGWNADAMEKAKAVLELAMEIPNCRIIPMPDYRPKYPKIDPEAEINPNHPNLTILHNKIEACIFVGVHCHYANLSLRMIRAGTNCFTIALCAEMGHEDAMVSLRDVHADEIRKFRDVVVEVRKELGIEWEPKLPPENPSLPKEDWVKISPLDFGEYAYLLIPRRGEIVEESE
T2 sequence (O67232 whole entry partner): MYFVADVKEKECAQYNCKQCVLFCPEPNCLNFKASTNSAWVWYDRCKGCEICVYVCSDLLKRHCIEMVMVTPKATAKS
T3 sequence (O67255 entry or part of it): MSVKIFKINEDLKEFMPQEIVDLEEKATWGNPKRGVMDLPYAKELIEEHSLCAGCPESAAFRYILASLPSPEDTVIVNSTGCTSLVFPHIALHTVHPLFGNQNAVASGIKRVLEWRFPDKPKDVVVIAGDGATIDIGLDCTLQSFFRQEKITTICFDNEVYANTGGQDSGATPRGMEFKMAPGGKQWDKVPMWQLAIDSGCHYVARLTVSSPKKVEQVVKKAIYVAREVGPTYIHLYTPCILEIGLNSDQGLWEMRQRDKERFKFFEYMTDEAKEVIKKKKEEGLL
T3 sequence (O67254 entry or part of it): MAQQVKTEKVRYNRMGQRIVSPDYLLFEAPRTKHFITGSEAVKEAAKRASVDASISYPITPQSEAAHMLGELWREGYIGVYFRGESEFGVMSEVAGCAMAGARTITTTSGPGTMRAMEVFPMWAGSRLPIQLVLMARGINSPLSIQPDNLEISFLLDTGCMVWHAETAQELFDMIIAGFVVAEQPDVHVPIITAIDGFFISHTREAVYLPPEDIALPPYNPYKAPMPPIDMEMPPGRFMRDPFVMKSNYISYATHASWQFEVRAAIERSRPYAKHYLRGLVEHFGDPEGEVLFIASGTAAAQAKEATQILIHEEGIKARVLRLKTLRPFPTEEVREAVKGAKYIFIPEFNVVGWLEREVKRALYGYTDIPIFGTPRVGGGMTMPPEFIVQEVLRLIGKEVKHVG
T3 sequence (O67256 entry or part of it): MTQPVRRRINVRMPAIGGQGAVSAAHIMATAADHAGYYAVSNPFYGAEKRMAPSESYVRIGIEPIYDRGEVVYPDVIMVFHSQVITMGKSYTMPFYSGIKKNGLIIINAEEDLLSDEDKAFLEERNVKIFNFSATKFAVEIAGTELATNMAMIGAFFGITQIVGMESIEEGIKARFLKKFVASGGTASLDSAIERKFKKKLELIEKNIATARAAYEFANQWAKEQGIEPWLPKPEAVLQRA
T3 sequence (O67251 whole entry, further chain): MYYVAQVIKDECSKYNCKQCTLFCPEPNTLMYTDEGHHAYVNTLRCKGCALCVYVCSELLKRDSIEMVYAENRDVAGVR
T3 sequence (O67252 entry or part of it, further chain): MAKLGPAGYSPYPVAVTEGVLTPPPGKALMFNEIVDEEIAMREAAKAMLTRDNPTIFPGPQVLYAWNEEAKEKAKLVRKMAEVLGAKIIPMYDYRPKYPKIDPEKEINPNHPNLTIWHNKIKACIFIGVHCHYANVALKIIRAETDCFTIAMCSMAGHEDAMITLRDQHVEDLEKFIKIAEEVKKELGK

On to `[S]12[Fe]3[S]4[Fe]1[S]1[Fe]2[S]3[Fe]41` [[4Fe-4S] cluster], for which the “EPR spectroscopy and UV-visible absorption” value in assay [1] is “confirming the presence of one [4Fe-4S] center per Fd molecule”. On to `O=C(O)CCC(=O)C(=O)O` [2-oxoglutarate], for which the “spectrophotometric methyl viologen reduction at 604 nm, enriched fraction; in-ge” value in assay [2] is “pyruvate for PFOR and 2-oxoglutarate for OGOR”.

On to “pyruvate:ferredoxin oxidoreductase (PFOR) of Aquifex aeolicus, five-subunit complex PORαβγδε (from UniProt O67254 1-404; O67255 1-286; O67256 1-241; O67251 1-79; O67252 1-189)”, for which the stoichiometry N (usually a count of units in the complex or per binding partner) in assay [3] was 2. Regarding `CC(=O)C(=O)O` [pyruvate], in assay [4], the “spectrophotometric methyl viologen reduction at 604 nm, enriched fraction; in-ge” value is “pyruvate for PFOR and 2-oxoglutarate for OGOR”.

Regarding “2-oxoglutarate:ferredoxin oxidoreductase (OGOR) of Aquifex aeolicus, five-subunit complex FORαβγδε (from UniProt O67229 1-389; O67230 1-289; O67231 1-230; O67232 1-78; O67228 1-244)”, the stoichiometry N in assay [5] was 2.

These data come from PMC10052474, “Carbon Fixation in the Chemolithoautotrophic Bacterium Aquifex aeolicus Involves Two Low-Potential Ferredoxins as Partners of the PFOR and OGOR Enzymes” (Life, 2023).
